Assay results from US8529927B2, “Alpha-2 agonist polymeric drug delivery systems” (Allergan, Inc., priority 2004, dated 2013).
Like-named read-outs stand apart in the source and are kept apart here.

Columns and labels:
[1] = in vivo
Description: A separate group of rabbits were studied to obtain pharmacokinetic data. In these rabbits the implants were inserted using a surgical intravitreal implantation procedure performed as follows: a conjunctival incision was made, and a sclerotomy was performed with a 20-gauge MVR blade. The sclerotomy was 3 mm from the limbus and lateral to the dorsal rectus muscle between the 10 and 12 o'clock positions on the right eye, and between the 12 and 2 o'clock positions on the left eye. Using a sterile forceps, the test article was inserted through the sclerotomy. The sclerotomy was closed with 9-0 Prolene suture material. A sterile ocular lubricant was applied to the eye following the implantation procedure. Blood was collected from rabbits prior to euthanasia/necropsy on Days 8, 31, 58, 91, 136, or 184. The aqueous humor, vitreous humor, lens, retina and plasma samples from the rabbits were analyzed by using liquid chromatography-mass spectrometry/mass spectrometry (LC-MS/MS) methods.

[2] = tested on: Branch retinal vein occlusion (BRVO); test: intravitreal implants in monkeys with laser-induced branch retinal vein occlusion (BRVO); format: in vivo, Cynomolgus monkeys
Description: Baseline measures were performed 3 days prior to implantation and 10 days following implantation with intraocular pressure (IOP), mfERG, laser Doppler scanning topography/flowmetry (HRT/HRF), optical coherence tomography (OCT), indocyanine green angiography (ICG) and fluorescein angiography (FA).
Wide angle contact lens fundus photography verified implant count and localization.
Branch retinal vein occlusion (BRVO) was achieved by injecting 1 ml of 20 mg/kg Rose Bengal intravenously followed by thermal irradiation using Omni Coherent Diode laser at 532 nm, 600 mW, 50 um spot size, 0.01 sec pulse mode with a 1.6× inversion contact lens. Laser pulses were delivered until the vein segment was closed. […] Occlusion was verified post-laser by fundus photography.
Delay in fluorescein filling of the occluded vein was quantified using Metamorph 6.0 software. Intensity measurements were made with pre-defined regions of interest for early and late phases of fluorescein angiography to quantify delay in filling and the observed delay in fluorescein clearance.
Intraocular pressure (IOP) was recorded (OD and OS) in each group in triplicate post implantation and prior to all follow-up electrophysiology and retinal imaging procedures.
Multi-focal ERG was performed using a VERIS 5.0 system.

[3] = cited from earlier work
[4] = albino, rabbit, lens, other: intravitreal implantation, 200 μg
[5] = albino, rabbit, plasma, other: intravitreal implantation, 200 μg
[6] = albino, rabbit, retina, other: intravitreal implantation, 200 μg
[7] = albino, rabbit, vitreous humor, other: intravitreal implantation, 200 μg

Brc1c(NC2=NCCN2)ccc2nccnc12 [brimonidine, 5-bromo-6-(2-imidazolidinylideneamino) quinoxaline]
Iris-ciliary body brimonidine concentration, estimated mean value in parentheses ([1]; Day 8, Formulation #17 implant, estimate including ALQ samples): 3010 ng/g
Iris-ciliary body brimonidine concentration ([1]; Day 8 after intravitreal 200 μg brimonidine implant (Formulation #17), N = 2, two samples ALQ): 942 ng/g
period of detectable release from the implant into the vitreous ([1]; Formulation #17 implant): at least a ninety day period
route of clearance after release from the intravitreal implant ([1]; Formulation #17 implant): posterior clearance as opposed to an anterior clearance
time brimonidine was present in the retina ([1]; Formulation #17 implant): at least 84 days
concentration at 91 day ([1]; albino, rabbit, iris-ciliary body, other: intravitreal implantation, 200 μg): 42.9 ± 18.7 ng/g
concentration at 58 day [1, 4]: 17.9 ± 12.5 ng/g
concentration at 136 day [1, 4]: 16.2 ± 12.3 ng/g
concentration at 184 day [1, 4]: 1.18 ± 0.71 ng/g
concentration at 8 day [1, 5]: 0.092 ng/mL
concentration at 31 day [1, 5]: 0.0575 ng/mL
concentration at 58 day [1, 5]: 0.255 ng/mL
concentration at 58 day [1, 6]: 122 ± 57.3 ng/g
concentration at 91 day [1, 6]: 488 ± 471 ng/g
concentration at 184 day [1, 6]: 59.8 ± 35 ng/g
concentration at 31 day [1, 7]: 9.35 ± 6.25 ng/mL
concentration at 58 day [1, 7]: 5.6 ± 3.24 ng/mL
detectability in the aqueous humor ([1]; any time point (Days 8-184), Formulation #17 implant): not detectable at any time point
blood flow in the fovea (Laser Doppler Flowmetry) ([2]; following BRVO, FIG. 14): unchanged
amount of laser burns needed to close the veins ([2]; n=2): 157±79
solubility in water ([3]; listed as brimonidine free base): not water soluble
solubility in water ([3]; listed as brimonidine freebase): negligible
